The results in this text go back to the OligoGym collection.

Bases are written 5' to 3'; sugars and linkages follow in the same order, as letters with counts (s phosphorothioate, o phosphodiester; PS: all linkages phosphorothioate). The collection does not say whether C is 5-methylated. l = locked nucleic acid (LNA); d = 2'-deoxy (DNA)

This data set concerns the target Tau. In words: rat primary cortical neurons, FLIPR, 25 uM ASO.
Turning to “CTTACCATCCTATCTTC (sugars l3 d11 l3, PS)”, the calcium oscillation score was 87 % of control. The same measure for CTTACTGATCATAATC (sugars l4 d8 l4, PS): 56.4 % of control; for CTTACTGATCATAATCC (sugars l4 d9 l4, PS): 85.1 % of control; for “CTTACTTTCTACTCAATTCC (sugars l2 d16 l2, PS)”: 60.6 % of control. Next, “CTTAGCATCAGAGGTTTCAG (sugars l3 d14 l3, PS)”: 7.41 % of control; “CTTAGTCATCTTCCCTC (sugars l2 d13 l2, PS)”: 92.4 % of control. As for “CTTAGTCATCTTCCCTCA (sugars l2 d14 l2, PS)”, the calcium oscillation score is 93.8 % of control. The same measure for CTTATTAATTATCTGC (sugars l4 d8 l4, PS): 33.9 % of control; for “CTTATTGCTTTCCAATTC (sugars l2 d12 l4, PS)”: 83.6 % of control. Next, “CTTCAGGTCTGGCATGGGCA (sugars l3 d14 l3, PS)”: 0 % of control.

Turning to CTTCAGTCCTAATCCT (sugars l3 d10 l3, PS), the calcium oscillation score is 95.8 % of control. CTTCATTCTTGCCCAA (sugars l3 d10 l3, PS): the calcium oscillation score was 33.3 % of control. Next, CTTCCAAGACTTCTCC (sugars l4 d10 l2, PS): 77.2 % of control; CTTCCAGTCCCGTCTT (sugars l3 d10 l3, PS): 0 % of control; “CTTCCATCACTTCGAACTCC (sugars l3 d14 l3, PS)”: 27.1 % of control. The same measure for “CTTCTAATTTAGTCACC (sugars l3 d10 l4, PS)”: 54.6 % of control; for “CTTCTAGTTATACAGTTGGC (sugars l3 d14 l3, PS)”: 40.5 % of control; for CTTCTATTACTTGCAAT (sugars l4 d9 l4, PS): 69 % of control. For CTTCTCAGCCACTGTT (sugars l3 d10 l3, PS), the calcium oscillation score was 67.9 % of control. Next, “CTTCTCCAGTATTTCTTC (sugars l2 d13 l3, PS)”: 69.4 % of control.

Take CTTCTGTCACTTATTTA (sugars l4 d9 l4, PS): the calcium oscillation score was 46.9 % of control. For “CTTGAAGTCAAGCTTCTCAG (sugars l3 d14 l3, PS)”, the calcium oscillation score is 33.2 % of control. As for CTTGGCTTTGGCGTT (sugars l3 d9 l3, PS), the calcium oscillation score is 82.4 % of control. Next, CTTGGCTTTGGCGTTC (sugars l3 d10 l3, PS): 2.61 % of control; “CTTGGCTTTTTTGTCATCGC (sugars l3 d14 l3, PS)”: 23.3 % of control; CTTGGGTGGAGTACGG (sugars l3 d10 l3, PS): 0 % of control. Consider “CTTGGGTGGAGTACGGACCA (sugars l3 d14 l3, PS)”, for which the calcium oscillation score was 0 % of control. Turning to CTTGTGATGCAGGA (sugars l3 d8 l3, PS), the calcium oscillation score is 70.5 % of control. The same measure for CTTGTGATGCAGGAG (sugars l3 d9 l3, PS): 87.8 % of control. The same measure for CTTTAATTTAATCACTC (sugars l4 d9 l4, PS): 17.3 % of control; for “CTTTAATTTAATCACTCA (sugars l4 d10 l4, PS)”: 76.6 % of control. For the sequence “CTTTACCCATCTTAATTC (sugars l4 d11 l3, PS)”, the calcium oscillation score is 86.1 % of control. Next, “CTTTACCCATCTTAATTCAT (sugars l3 d15 l2, PS)”: 82.1 % of control. The same measure for “CTTTATTCCCTTAACAATAT (sugars l3 d14 l3, PS)”: 74.6 % of control; for “CTTTATTTCCAAATTCAC (sugars l3 d11 l1 d1 l2, PS)”: 132 % of control. The same measure for “CTTTATTTCCAAATTCAC (sugars l3 d11 l4, PS)”: 112 % of control; for “CTTTATTTCCAAATTCAC (sugars l4 d10 l1 d1 l2, PS)”: 5.59 % of control; for “CTTTATTTCCAAATTCAC (sugars l4 d10 l4, PS)”: 110 % of control. With “CTTTATTTCCAAATTCAC (sugars l5 d9 l1 d1 l2, PS)”, the calcium oscillation score was 119 % of control. Next, “CTTTATTTCCAAATTCAC (sugars l5 d9 l4, PS)”: 104 % of control; “CTTTATTTCCAAATTCAC (sugars lldlddddddddddldll, PS)”: 136 % of control. The same measure for “CTTTATTTCCAAATTCACT (sugars l3 d11 l1 d1 l3, PS)”: 116 % of control; for “CTTTATTTCCAAATTCACT (sugars l3 d11 l1 d2 l2, PS)”: 140 % of control; for “CTTTATTTCCAAATTCACT (sugars l3 d11 l2 d1 l2, PS)”: 116 % of control. The same measure for “CTTTATTTCCAAATTCACT (sugars l3 d11 l5, PS)”: 121 % of control; for “CTTTATTTCCAAATTCACT (sugars l4 d10 l1 d1 l3, PS)”: 106 % of control. Consider “CTTTATTTCCAAATTCACT (sugars l4 d10 l1 d2 l2, PS)”, for which the calcium oscillation score is 125 % of control. Next, “CTTTATTTCCAAATTCACT (sugars l4 d10 l2 d1 l2, PS)”: 93.2 % of control; “CTTTATTTCCAAATTCACT (sugars l4 d10 l5, PS)”: 108 % of control; “CTTTATTTCCAAATTCACT (sugars l5 d9 l1 d1 l3, PS)”: 110 % of control. Next, “CTTTATTTCCAAATTCACT (sugars l5 d9 l1 d2 l2, PS)”: 104 % of control. The same measure for “CTTTATTTCCAAATTCACT (sugars l5 d9 l2 d1 l2, PS)”: 108 % of control; for “CTTTATTTCCAAATTCACT (sugars l5 d9 l5, PS)”: 127 % of control. As to “CTTTATTTCCAAATTCACTT (sugars l1 d17 l2, PS)”, the calcium oscillation score was 179 % of control. Regarding “CTTTATTTCCAAATTCACTT (sugars l2 d1 l1 d12 l4, PS)”, the calcium oscillation score is 44.7 % of control. As for “CTTTATTTCCAAATTCACTT (sugars l2 d1 l1 d13 l3, PS)”, the calcium oscillation score is 132 % of control. On to “CTTTATTTCCAAATTCACTT (sugars l2 d1 l2 d11 l4, PS)”, for which the calcium oscillation score was 0 % of control. The same measure for “CTTTATTTCCAAATTCACTT (sugars l2 d1 l2 d12 l3, PS)”: 112 % of control. The same measure for “CTTTATTTCCAAATTCACTT (sugars l2 d2 l1 d11 l4, PS)”: 74.5 % of control; for “CTTTATTTCCAAATTCACTT (sugars l2 d2 l1 d12 l3, PS)”: 108 % of control; for “CTTTATTTCCAAATTCACTT (sugars l2 d16 l2, PS)”: 195 % of control. Next, “CTTTATTTCCAAATTCACTT (sugars l3 d1 l1 d11 l4, PS)”: 129 % of control; “CTTTATTTCCAAATTCACTT (sugars l3 d1 l1 d12 l3, PS)”: 29.8 % of control.

Regarding “CTTTATTTCCAAATTCACTT (sugars l3 d11 l1 d2 l3, PS)”, the calcium oscillation score was 112 % of control. As to “CTTTATTTCCAAATTCACTT (sugars l3 d14 l3, PS)”, the calcium oscillation score was ≥ 200 % of control. Next, “CTTTATTTCCAAATTCACTT (sugars l4 d11 l5, PS)”: 136 % of control; “CTTTATTTCCAAATTCACTT (sugars l4 d12 l4, PS)”: 0 % of control; “CTTTATTTCCAAATTCACTT (sugars l4 d13 l3, PS)”: 121 % of control. Next, “CTTTATTTCCAAATTCACTT (sugars l5 d10 l5, PS)”: ≥ 200 % of control; “CTTTATTTCCAAATTCACTT (sugars l5 d11 l4, PS)”: 143 % of control.

With “CTTTATTTCCAAATTCACTT (sugars ldlllddddddddddlldll, PS)”, the calcium oscillation score is 134 % of control. Next, “CTTTATTTCCAAATTCACTT (sugars lldllddddddddddlldll, PS)”: 117 % of control; “CTTTCATCTACTTTTCAG (sugars l3 d12 l3, PS)”: 70.8 % of control; “CTTTCCTAATTCCCAAATTC (sugars l3 d15 l2, PS)”: 60.9 % of control. The same measure for “CTTTCTACTCAATTCCAG (sugars l3 d12 l3, PS)”: 45.5 % of control; for “CTTTGAACACCCCATCTA (sugars l2 d14 l2, PS)”: 45.6 % of control; for CTTTGAGTTGAGGGAC (sugars l3 d10 l3, PS): 29.1 % of control. The same measure for “CTTTGCTTTTACTGACCATG (sugars l3 d14 l3, PS)”: 0 % of control; for CTTTGGCGTTCTCGCG (sugars l3 d10 l3, PS): 93.5 % of control. With “CTTTGTAATTCCTTCTCT (sugars l2 d13 l3, PS)”, the calcium oscillation score is 63.3 % of control. The same measure for “CTTTTAATTAAATTTCTCCC (sugars l2 d15 l3, PS)”: 87.6 % of control; for “CTTTTCCCAATTATTAAC (sugars l4 d10 l4, PS)”: 60.1 % of control. The same measure for “CTTTTCCCAATTATTAACC (sugars l3 d14 l2, PS)”: 54.5 % of control; for “CTTTTCTACTCTACTCTCAA (sugars l4 d14 l2, PS)”: 67.6 % of control; for “CTTTTCTCAATGTAACC (sugars l4 d10 l3, PS)”: 65.9 % of control. CTTTTCTTAAAGTTCAC (sugars l4 d9 l4, PS): the calcium oscillation score was 82.2 % of control. Next, “CTTTTGAACCCATTCCA (sugars l3 d12 l2, PS)”: 82.2 % of control; “CTTTTGAACCCATTCCAC (sugars l3 d13 l2, PS)”: 110 % of control. For the sequence “CTTTTTCCATCTTACTAATA (sugars l3 d14 l3, PS)”, the calcium oscillation score is 46.5 % of control.

In the case of “CTTTTTCTTGTTCTAAC (sugars l2 d11 l4, PS)”, the calcium oscillation score was 57.9 % of control.

Consider “CTTTTTCTTGTTCTAACC (sugars l3 d11 l4, PS)”, for which the calcium oscillation score was 62.3 % of control. “CTTTTTTTTTCCACACTCTC (sugars l2 d14 l4, PS)”: the calcium oscillation score was 49 % of control.

In the case of GAAAACCATCAACCAC (sugars l4 d8 l4, PS), the calcium oscillation score is 44.3 % of control.
